Measurements as given in patent publication US5215982A, “Cephem compounds” (Fujisawa Pharmaceutical Co., Ltd., priority 1989, dated 1993).

Test system: E. coli 31
Assay: In vitro antibacterial activity, two-fold agar-plate dilution method (MIC)
Type: cell-based
Settings: Escherichia coli, 10^6 viable cells per ml, heart infusion agar, 37° C., 20 hours, read-out: MIC (minimal inhibitory concentration)
Experimental: Now in order to show the utility of the object compound (I), the test data on MIC (minimal inhibitory concentration) of a representative compound of the compound (I) are shown in the following.
In vitro antibacterial activity was determined by the two-fold agar-plate dilution method as described below.
One loopful of an overnight culture of each test strain in Trypticase-soy broth (10^6 viable cells per ml) was streaked on heart infusion agar (HI-agar) containing graded concentrations of representative test compound, and the minimal inhibitory concentration (MIC) was expressed in terms of μg/ml after incubation at 37° C. for 20 hours.

CON=C(C(=O)NC1C(=O)N2C(C(=O)[O-])=C(C[n+]3ccc4[nH]ccn43)CSC12)c1nsc(N)n1 (stereo not drawn) [Test Compound (1), 7β-[2-(5-Amino-1,2,4-thiadiazol-3-yl)-2-methoxyiminoacetamido]-3-[5-(1H-imidazo[1,2-b]pyrazolio)]methyl-3-cephem-4-carboxylate (syn isomer)]
MIC: ≤ 0.025 µg/mL
